Data: patent publication EP0402734A2, “Composition for the treatment of application of the central nervous system and to enhance cerebral perfusion” (Dr. Karl Thomae GmbH, priority 1989, dated 1990)

Legend:
[1] = target: muscarinische Rezeptoren der Pia mater des Rindes; experiment: Inhibition of 3H-NMS binding to muscarinic receptors in bovine pia mater vessel homogenate; parameters: species or system Rind; conditions: Hemmung der ³H-NMS-Bindung, 0,3 nM [³H]NMS, 45 min, room temperature
Procedure: A. Bindung verschiedener muskarinischer Antagonisten an Rezeptoren der Pia mater des Rindes
Die Pia-Gefäße von Rinder-Hirnen, erhalten vom lokalen Schlachthof, wurden präpariert und von Blutresten gereinigt. Je 0,5 g-Portionen wurden bei -80°C bis zur weiteren Verwendung gelagert. Zur Homogenatgewinnung wurden 0,5 g Pia-Gefäße mittels eines Gewebehackers zerkleinert, in 60 ml HEPES-Puffer (20 mM HEPES, 10 mM MgCl₂, 100 mM NaCl, pH 7,50) aufgenommen, mit einem Ultra-Turrax homogenisiert und 20 min. bei 0°C mit 48000 x g zentrifugiert. Das Pellet wurde erneut mit einem Ultra-Turrax homogenisiert, durch Mull filtriert und mit HEPES-Puffer auf eine Verdünnung von 1:140 bezogen auf das Feuchtgewicht der Gefäße verdünnt.
0,3 nM [³H]NMS (³H-N-Methylscopolamin) und steigende Konzentrationen des Antagonisten wurden mit dem Homogenat in einem Gesamtvolumen von 0,52 ml für 45 min. bei Raumtemperatur inkubiert. Der Inkubationsansatz wurde mit Hilfe eines Scatron Cell Harvesters über Glasfaser-Filtermatten filtriert und zweimal mit eiskalter physiologischer Kochsalzlösung gewaschen. Die Filter-gebundene Radioaktivität wurde in einem Flüssigkeitsszintillationszähler bestimmt. Als unspezifische Bindung wurde die gebundene Radioaktivität in Gegenwart von 10⁻⁶M (-)-Chinuclidinyl-benzilat definiert.

[2] = tested on: inhibitorischen Autorezeptoren in hippocampalem Gewebe; experiment: Transmitter release study: in vitro acetylcholine release from electrically stimulated hippocampal slices, antagonism of carbachol; format: cell-based, Ratten; conditions: rat hippocampal slices 0,4 mm, preloaded with ³H-Cholin, electrical stimulation 3 Hz, agonist Carbachol
Description: B. Transmitter Release Studien
Die Versuche zur in-vitro Freisetzung von Acetylcholin aus hippocampalen Gewebeschnitten wurden in Analogie zu Anord nungen durchgeführt, die für die Freisetzung von 5-HT aus Hypothalamus- bzw. Hippocampus-Gewebe beschrieben sind (vgl. M.H. Richards, Naunyn Schmiedeberg's Arch. Pharmacol. 329, 359-366 (1985) und T.J. Feuerstein, G. Hertting und R. Jackisch, Europ. J. Pharmacol. 107, 233-242 (1985)).
Männliche Ratten (Stamm Chbb:Thom, Gewicht 200 bis 300 g) wurden ohne Vorbehandlung dekapitiert; das gesamte Gehirn wurde sofort entnommen und unter Eiskühlung zerlegt. Gemäß den oben beschriebenen Verfahren wurde der Hippocampus in 0,4 mm dicke Schnitte mit Hilfe eines McIlwain-Gewebehackers geschnitten. Die Gewebeschnitte wurden 30 Minuten lang bei 37°C vorincubiert in Gegenwart von 0,05 mM ³H-Cholin in Krebs-Henseleit Puffer der folgenden Zusammensetzung: 120 mM NaCl, 4,8 mM KCl, 1,3 mM CaCl₂, 1,2 mM KH₂PO₄, 1,2 mM MgSO₄ und 25 mM NaHCO₃. Der Puffer enthielt zusätzlich 2 g Glucose und 100 mg EDTA. Der Puffer wurde mit Natronlauge auf einen pH-Wert von 7,4 bei 20°C eingestellt. Alle Lösungen wurden kontinuierlich mit 95 % O₂ und 5 % CO₂ gesättigt. Die Gewebeschnitte wurden daraufhin gespült, jeder Gewebeschnitt wurde jeweils willkürlich auf 12 Superfusionseinheiten gegeben und mit der Pufferlösung bei 37°C bei einer Fließgeschwindigkeit von 1 ml/min überspült. Die Gewebeschnitte wurden jeweils von einem Polypropylennetzwerk zwischen zwei Platinelektroden gehalten. Nach 50-minütiger Überspülung wurden 4-Minuten-Fraktionen des Superfusats über eine gesamte Zeitdauer von 92 Minuten gesammelt. Die Gewebeschnitte wurden zweimal elektrisch stimuliert, und zwar 60 Minuten (S1) und 100 Minuten (S2) nach Beginn der Superfusion. Dabei wurden Rechteckimpulse von 2 ms Dauer und mit einer Frequenz von 3 Hz 100 Sekunden lang bei 5 V/cm und 24 mA mittels eines HSE Stimulators II der Firma Hugo Sachs Elektronik, Hugstetten, West-Deutschland, verabreicht. Die zu prüfenden Substanzen wurden dem Puffer ab 20 Minuten vor dem Zeitpunkt S2 zusammen mit dem Agonisten (Carbachol) beigefügt. Am Ende wurden die Gewebeschnitte aus den Kammern entfernt und zur Bestimmung des verbliebenen Tritiums solubilisiert. […]

Structure (SMILES) | -log IC₅₀ (M) [1] | ACh-Release aus Hippocampus-Gewebe (pA₂) [2]
CCN(CC)CC1CCCCN1CC(=O)N1c2cc(Cl)ccc2C(=O)Nc2cccnc21 (racemic) [C, (±)-9-Chlor-11-[[2-[(diethylamino)methyl]-1-piperidinyl]acetyl]-5,11-dihydro-6H-pyrido[2,3-b][1,4]benzodiazepin-6-on] | 7,5 M | 7,3
CCN(CC)CC1CCCCN1CC(=O)N1c2ccccc2C(=O)Nc2cccnc21 (single isomer, unassigned; (+)) [A, (+)-11-[[2-[(Diethylamino)methyl]-1-piperidinyl]acetyl]-5,11-dihydro-6H-pyrido[2,3-b][1,4]benzodiazepin-6-on] | 7,1 M | 7,15
O=C1Nc2cccnc2N(C(=O)CCC#CCN2CCCCC2)c2ccccc21 [B, 5,11-Dihydro-11-[1-oxo-6-(1-piperidinyl)-4-hexin-1-yl]-6H-pyrido[2,3-b][1,4]benzodiazepin-6-on] | 6,9 M | 7,2
CCCN(CCC)CC1CCCCN1CCNC(=O)N1c2ccccc2C(=O)Nc2cccnc21.CS(=O)(=O)O (centres unmarked) [D, 5,11-Dihydro-11-[[[2-[2-[(dipropylamino)methyl]-1-piperidinyl]ethyl]amino]carbonyl]-6H-pyrido[2,3-b][1,4]benzodiazepin-6-on-methansulfonat] | 7,9 M | 8,35
O=C1Nc2cccnc2N(C(=O)N2CCCC(CCCN3CCCCC3)C2)c2ccccc21 (centres unmarked) [E, 5,11-Dihydro-11-[[3-[3-(1-piperidinyl)-1-propyl]-1-piperidinyl]carbonyl]-6H-pyrido[2,3-b][1,4]benzodiazepin-6-on] | 8,8 M | 9,55
Cc1scc2c1N(C(=O)CN1CCC(CCCN3CCCCC3)CC1)c1ccccc1NC2=O [F, 4,9-Dihydro-3-methyl-4-[[4-[3-(1-piperidinyl)-1-propyl]-1-piperidinyl]acetyl]-10H-thieno[3,4-b][1,5]benzodiazepin-10-on] | 8,6 M | 7,7
Cc1scc2c1N(C(=O)CCC#CCN1CCCCCC1)c1ccccc1NC2=O [H, 4,9-Dihydro-3-methyl-4-[6-(hexahydro-1H-1-azepinyl)-1-oxo-4-hexin-1-yl]-10H-thieno[3,4-b][1,5]benzodiazepin-10-on] | 8,0 M | 8,0
CCN(CC)CC1COCCN1CCCC(=O)N1c2ccccc2C(=O)Nc2cccnc21 (centres unmarked) [I, 11-[4-[3-[(Diethylamino)methyl]-4-morpholinyl]-1-oxo-1-butyl]-5,11-dihydro-6H-pyrido[2,3-b][1,4]benzodiazepin-6-on] | 7,7 M | 7,5
CN(CCC1CCCN1C)CC(=O)N1c2ccccc2C(=O)Nc2cccnc21 (centres unmarked) [K, 5,11-Dihydro-11-[[[2-(1-methyl-2-pyrrolidinyl)ethyl]methylamino]acetyl]-6H-pyrido[2,3-b][1,4]benzodiazepin-6-on] | 8,2 M | 8,5
CN(CCC1CCCCCN1C)CC(=O)N1c2ccccc2C(=O)Nc2cccnc21 (centres unmarked) [L, 5,11-Dihydro-11-[[[2-(1-methyl-hexahydro-1H-2-azepinyl)ethyl]methylamino]acetyl]-6H-pyrido[2,3-b][1,4]benzodiazepin-6-on] | 8,4 M | 8,45
